Key:
Test in all cases: KINOMEscan assay (Eurofins DiscoverX)
Format in all cases: binding
kinome (kinase panel) [1] = molecular target: T1, kinome (kinase panel) (Homo sapiens, UniProt P53779); settings: JNK3 (Entrez MAPK10); 1000 nM; read-out: Percent Control
T1 construct: purchased Eurofins DiscoverX

kinome (kinase panel) [2] = molecular target: T2, kinome (kinase panel) (Homo sapiens, UniProt Q02750); settings: MEK1 (Entrez MAP2K1); 1000 nM; read-out: Percent Control
T2 construct: purchased Eurofins DiscoverX
T2 sequence (Q02750 whole entry): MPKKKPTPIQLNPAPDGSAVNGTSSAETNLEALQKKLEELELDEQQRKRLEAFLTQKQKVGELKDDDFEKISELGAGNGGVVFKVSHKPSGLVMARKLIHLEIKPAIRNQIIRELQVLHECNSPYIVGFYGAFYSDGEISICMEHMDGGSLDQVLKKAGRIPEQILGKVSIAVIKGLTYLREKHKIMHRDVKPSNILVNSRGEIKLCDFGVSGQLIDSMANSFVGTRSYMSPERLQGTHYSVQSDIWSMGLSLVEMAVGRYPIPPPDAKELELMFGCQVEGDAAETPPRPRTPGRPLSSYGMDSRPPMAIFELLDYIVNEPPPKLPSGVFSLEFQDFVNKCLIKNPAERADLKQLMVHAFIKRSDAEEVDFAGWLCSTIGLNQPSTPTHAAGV

kinome (kinase panel) [3] = molecular target: T3, kinome (kinase panel) (Homo sapiens, UniProt P49137); settings: MAPKAPK2; 1000 nM; read-out: Percent Control
T3 construct: purchased Eurofins DiscoverX

kinome (kinase panel) [4] = molecular target: T4, kinome (kinase panel) (Homo sapiens, UniProt P36888, R834Q); settings: […]; 1000 nM; read-out: Percent Control
T4 construct: purchased Eurofins DiscoverX

kinome (kinase panel) [5] = molecular target: T5, kinome (kinase panel) (Homo sapiens, UniProt P57078); settings: RIPK4; 1000 nM; read-out: Percent Control
T5 construct: purchased Eurofins DiscoverX

kinome (kinase panel) [6] = molecular target: T6, kinome (kinase panel) (Homo sapiens, UniProt P36888, D835H); settings: […]; 1000 nM; read-out: Percent Control
T6 construct: purchased Eurofins DiscoverX

kinome (kinase panel) [7] = molecular target: T7, kinome (kinase panel) (Homo sapiens, UniProt Q86V86); settings: PIM3; 1000 nM; read-out: Percent Control
T7 construct: purchased Eurofins DiscoverX

kinome (kinase panel) [8] = molecular target: T8, kinome (kinase panel) (Homo sapiens, UniProt O15075); settings: DCAMKL1 (Entrez DCLK1); 1000 nM; read-out: Percent Control
T8 construct: purchased Eurofins DiscoverX
T8 sequence (O15075 whole entry): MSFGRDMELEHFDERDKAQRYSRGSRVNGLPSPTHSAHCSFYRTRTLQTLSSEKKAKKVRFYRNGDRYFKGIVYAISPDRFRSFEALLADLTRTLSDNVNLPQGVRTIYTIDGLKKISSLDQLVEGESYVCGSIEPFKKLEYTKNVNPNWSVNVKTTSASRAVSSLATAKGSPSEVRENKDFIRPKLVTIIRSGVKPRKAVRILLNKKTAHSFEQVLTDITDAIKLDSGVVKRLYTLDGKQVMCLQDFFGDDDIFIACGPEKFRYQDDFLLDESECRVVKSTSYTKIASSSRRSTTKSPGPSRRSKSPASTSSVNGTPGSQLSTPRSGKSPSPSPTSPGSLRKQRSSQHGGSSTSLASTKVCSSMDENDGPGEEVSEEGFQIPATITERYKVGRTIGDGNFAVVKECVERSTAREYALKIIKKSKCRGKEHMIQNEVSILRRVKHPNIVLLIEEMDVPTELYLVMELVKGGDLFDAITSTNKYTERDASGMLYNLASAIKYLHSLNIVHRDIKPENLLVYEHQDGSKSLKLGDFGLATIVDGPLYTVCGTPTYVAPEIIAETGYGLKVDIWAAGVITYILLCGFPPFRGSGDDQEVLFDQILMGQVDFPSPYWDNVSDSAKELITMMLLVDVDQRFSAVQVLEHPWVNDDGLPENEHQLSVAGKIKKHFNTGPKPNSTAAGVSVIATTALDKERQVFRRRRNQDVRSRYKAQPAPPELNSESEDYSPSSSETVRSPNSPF

kinome (kinase panel) [9] = molecular target: T9, kinome (kinase panel) (Homo sapiens, UniProt P42336, E542K); settings: read-out: Percent Control
T9 construct: purchased Eurofins DiscoverX

kinome (kinase panel) [10] = molecular target: T10, kinome (kinase panel) (Homo sapiens, UniProt Q9NY57); settings: YANK2 (STK32B); 1000 nM; read-out: Percent Control
T10 construct: purchased Eurofins DiscoverX

kinome (kinase panel) [11] = molecular target: T11, kinome (kinase panel) (Homo sapiens, UniProt Q8NEB9); settings: VPS34 (PIK3C3); 1000 nM; read-out: Percent Control
T11 construct: purchased Eurofins DiscoverX

kinome (kinase panel) [12] = molecular target: T12, kinome (kinase panel) (Homo sapiens, UniProt P00533, G719C); settings: […]; 1000 nM; read-out: Percent Control
T12 construct: purchased Eurofins DiscoverX

kinome (kinase panel) [13] = molecular target: T13, kinome (kinase panel) (Homo sapiens, UniProt P50750); settings: CDK9; 1000 nM; read-out: Percent Control
T13 construct: purchased Eurofins DiscoverX

kinome (kinase panel) [14] = molecular target: T14, kinome (kinase panel) (Homo sapiens, UniProt Q9Y2U5); settings: MAP3K2; 1000 nM; read-out: Percent Control
T14 construct: purchased Eurofins DiscoverX

kinome (kinase panel) [15] = molecular target: T15, kinome (kinase panel) (Homo sapiens, UniProt Q96NX5); settings: CAMK1G; 1000 nM; read-out: Percent Control
T15 construct: purchased Eurofins DiscoverX
T15 sequence (Q96NX5 whole entry): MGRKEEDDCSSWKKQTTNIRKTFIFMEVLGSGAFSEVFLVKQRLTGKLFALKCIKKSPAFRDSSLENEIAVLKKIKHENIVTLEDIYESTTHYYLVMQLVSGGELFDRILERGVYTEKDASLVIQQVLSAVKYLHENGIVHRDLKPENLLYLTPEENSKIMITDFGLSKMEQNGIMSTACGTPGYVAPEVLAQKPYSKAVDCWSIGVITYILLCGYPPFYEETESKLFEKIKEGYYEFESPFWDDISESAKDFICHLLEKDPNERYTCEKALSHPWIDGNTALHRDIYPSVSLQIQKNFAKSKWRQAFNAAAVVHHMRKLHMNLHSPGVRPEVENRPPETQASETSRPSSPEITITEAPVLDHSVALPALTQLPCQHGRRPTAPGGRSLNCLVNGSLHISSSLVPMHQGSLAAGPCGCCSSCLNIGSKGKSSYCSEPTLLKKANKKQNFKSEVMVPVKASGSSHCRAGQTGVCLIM

kinome (kinase panel) [16] = molecular target: T16, kinome (kinase panel) (Homo sapiens, UniProt P04629); settings: TRKA (NTRK1); 1000 nM; read-out: Percent Control
T16 construct: purchased Eurofins DiscoverX

kinome (kinase panel) [17] = molecular target: T17, kinome (kinase panel) (Homo sapiens, UniProt Q04912); settings: MST1R; 1000 nM; read-out: Percent Control
T17 construct: purchased Eurofins DiscoverX

kinome (kinase panel) [18] = molecular target: T18, kinome (kinase panel) (Homo sapiens, UniProt Q9NRH2); settings: SNRK; 1000 nM; read-out: Percent Control
T18 construct: purchased Eurofins DiscoverX

kinome (kinase panel) [19] = molecular target: T19, kinome (kinase panel) (Homo sapiens, UniProt Q13177); settings: PAK2; 1000 nM; read-out: Percent Control
T19 construct: purchased Eurofins DiscoverX

kinome (kinase panel) [20] = molecular target: T20, kinome (kinase panel) (Homo sapiens, UniProt P49674); settings: CSNK1E; 1000 nM; read-out: Percent Control
T20 construct: purchased Eurofins DiscoverX
T20 sequence (P49674 whole entry): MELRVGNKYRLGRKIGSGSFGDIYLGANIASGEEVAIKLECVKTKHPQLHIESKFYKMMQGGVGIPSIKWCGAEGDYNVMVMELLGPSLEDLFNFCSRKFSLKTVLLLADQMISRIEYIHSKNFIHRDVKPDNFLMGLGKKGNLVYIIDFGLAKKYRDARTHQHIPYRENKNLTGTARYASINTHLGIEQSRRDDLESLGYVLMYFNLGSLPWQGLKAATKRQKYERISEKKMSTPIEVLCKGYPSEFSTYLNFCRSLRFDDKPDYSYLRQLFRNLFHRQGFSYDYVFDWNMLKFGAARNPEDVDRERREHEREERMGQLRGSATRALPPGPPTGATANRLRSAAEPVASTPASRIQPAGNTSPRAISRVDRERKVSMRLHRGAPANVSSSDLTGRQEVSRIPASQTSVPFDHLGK

kinome (kinase panel) [21] = molecular target: T21, kinome (kinase panel) (Homo sapiens, UniProt Q9H1R3); settings: MYLK2; 1000 nM; read-out: Percent Control
T21 construct: purchased Eurofins DiscoverX

kinome (kinase panel) [22] = molecular target: T22, kinome (kinase panel) (Homo sapiens, UniProt O14976); settings: GAK; 1000 nM; read-out: Percent Control
T22 construct: purchased Eurofins DiscoverX

kinome (kinase panel) [23] = molecular target: T23, kinome (kinase panel) (Homo sapiens, UniProt Q9BZL6); settings: PRKD2; 1000 nM; read-out: Percent Control
T23 construct: purchased Eurofins DiscoverX

kinome (kinase panel) [24] = molecular target: T24, kinome (kinase panel) (Homo sapiens, UniProt P09769); settings: FGR; 1000 nM; read-out: Percent Control
T24 construct: purchased Eurofins DiscoverX

kinome (kinase panel) [25] = molecular target: T25, kinome (kinase panel) (Homo sapiens, UniProt Q92918); settings: HPK1 (Entrez MAP4K1); 1000 nM; read-out: Percent Control
T25 construct: purchased Eurofins DiscoverX

kinome (kinase panel) [26] = molecular target: T26, kinome (kinase panel) (Homo sapiens, UniProt Q8TDC3); settings: BRSK1; 1000 nM; read-out: Percent Control
T26 construct: purchased Eurofins DiscoverX
T26 sequence (Q8TDC3 whole entry): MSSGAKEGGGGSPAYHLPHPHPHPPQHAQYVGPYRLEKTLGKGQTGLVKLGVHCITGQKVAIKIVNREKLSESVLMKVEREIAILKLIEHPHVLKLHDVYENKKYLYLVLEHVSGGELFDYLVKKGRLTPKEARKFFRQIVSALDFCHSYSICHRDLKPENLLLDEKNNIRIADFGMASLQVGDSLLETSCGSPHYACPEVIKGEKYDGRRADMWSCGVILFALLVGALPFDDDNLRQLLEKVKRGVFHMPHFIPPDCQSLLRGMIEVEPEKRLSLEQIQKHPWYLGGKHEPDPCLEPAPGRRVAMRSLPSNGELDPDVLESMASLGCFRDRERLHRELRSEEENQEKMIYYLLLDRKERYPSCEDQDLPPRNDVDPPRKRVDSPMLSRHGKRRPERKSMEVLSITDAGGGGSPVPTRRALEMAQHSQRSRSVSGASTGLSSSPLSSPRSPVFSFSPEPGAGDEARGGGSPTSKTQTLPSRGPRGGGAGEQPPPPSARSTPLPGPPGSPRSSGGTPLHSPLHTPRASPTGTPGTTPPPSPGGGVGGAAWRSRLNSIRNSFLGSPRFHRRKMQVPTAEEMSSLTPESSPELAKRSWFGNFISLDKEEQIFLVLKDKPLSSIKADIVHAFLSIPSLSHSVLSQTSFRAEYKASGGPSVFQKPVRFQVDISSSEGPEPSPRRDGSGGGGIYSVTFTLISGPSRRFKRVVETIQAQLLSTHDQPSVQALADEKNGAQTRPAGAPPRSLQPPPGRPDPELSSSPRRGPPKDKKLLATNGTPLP

kinome (kinase panel) [27] = molecular target: T27, kinome (kinase panel) (Homo sapiens, UniProt P10721, V559D); settings: […]; 1000 nM; read-out: Percent Control
T27 construct: purchased Eurofins DiscoverX
T27 sequence (P10721 26-976 V559D): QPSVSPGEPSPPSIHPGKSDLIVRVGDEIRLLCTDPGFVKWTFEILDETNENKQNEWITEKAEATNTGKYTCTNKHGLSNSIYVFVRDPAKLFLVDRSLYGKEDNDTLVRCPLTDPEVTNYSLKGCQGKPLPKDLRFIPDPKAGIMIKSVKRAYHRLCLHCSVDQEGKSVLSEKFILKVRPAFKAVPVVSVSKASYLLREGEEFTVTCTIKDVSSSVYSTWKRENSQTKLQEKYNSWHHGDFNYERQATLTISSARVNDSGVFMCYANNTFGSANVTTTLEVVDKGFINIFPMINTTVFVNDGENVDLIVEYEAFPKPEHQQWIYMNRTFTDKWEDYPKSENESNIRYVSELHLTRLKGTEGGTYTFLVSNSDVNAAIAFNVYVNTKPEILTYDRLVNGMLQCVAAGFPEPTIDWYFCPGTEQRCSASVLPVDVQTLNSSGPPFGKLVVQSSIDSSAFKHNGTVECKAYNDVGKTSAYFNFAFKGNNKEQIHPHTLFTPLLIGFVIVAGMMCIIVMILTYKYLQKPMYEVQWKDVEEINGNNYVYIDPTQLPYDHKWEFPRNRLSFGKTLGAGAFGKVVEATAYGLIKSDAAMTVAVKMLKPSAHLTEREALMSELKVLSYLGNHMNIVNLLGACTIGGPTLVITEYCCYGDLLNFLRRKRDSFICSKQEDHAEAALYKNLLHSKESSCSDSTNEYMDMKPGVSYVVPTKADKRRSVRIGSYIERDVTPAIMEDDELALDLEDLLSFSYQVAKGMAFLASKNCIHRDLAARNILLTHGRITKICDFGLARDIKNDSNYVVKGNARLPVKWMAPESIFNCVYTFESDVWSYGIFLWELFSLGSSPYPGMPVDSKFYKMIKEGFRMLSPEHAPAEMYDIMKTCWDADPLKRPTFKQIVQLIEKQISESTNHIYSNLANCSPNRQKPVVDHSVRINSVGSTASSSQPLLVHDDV

kinome (kinase panel) [28] = molecular target: T28, kinome (kinase panel) (Homo sapiens, UniProt Q9NYL2); settings: ZAK; 1000 nM; read-out: Percent Control
T28 construct: purchased Eurofins DiscoverX

kinome (kinase panel) [29] = molecular target: T29, kinome (kinase panel) (Homo sapiens, UniProt P11309); settings: PIM1; 1000 nM; read-out: Percent Control
T29 construct: purchased Eurofins DiscoverX

kinome (kinase panel) [30] = molecular target: T30, kinome (kinase panel) (Homo sapiens, UniProt P42681); settings: TXK; 1000 nM; read-out: Percent Control
T30 construct: purchased Eurofins DiscoverX

kinome (kinase panel) [31] = molecular target: T31, kinome (kinase panel) (Homo sapiens, UniProt P42336, M1043I); settings: read-out: Percent Control
T31 construct: purchased Eurofins DiscoverX

kinome (kinase panel) [32] = molecular target: T32, kinome (kinase panel) (Homo sapiens, UniProt Q14004); settings: CDC2L5 (Entrez CDK13); 1000 nM; read-out: Percent Control
T32 construct: purchased Eurofins DiscoverX

kinome (kinase panel) [33] = molecular target: T33, kinome (kinase panel) (Homo sapiens, UniProt P57059); settings: SIK (SIK1); 1000 nM; read-out: Percent Control
T33 construct: purchased Eurofins DiscoverX
T33 sequence (P57059 whole entry): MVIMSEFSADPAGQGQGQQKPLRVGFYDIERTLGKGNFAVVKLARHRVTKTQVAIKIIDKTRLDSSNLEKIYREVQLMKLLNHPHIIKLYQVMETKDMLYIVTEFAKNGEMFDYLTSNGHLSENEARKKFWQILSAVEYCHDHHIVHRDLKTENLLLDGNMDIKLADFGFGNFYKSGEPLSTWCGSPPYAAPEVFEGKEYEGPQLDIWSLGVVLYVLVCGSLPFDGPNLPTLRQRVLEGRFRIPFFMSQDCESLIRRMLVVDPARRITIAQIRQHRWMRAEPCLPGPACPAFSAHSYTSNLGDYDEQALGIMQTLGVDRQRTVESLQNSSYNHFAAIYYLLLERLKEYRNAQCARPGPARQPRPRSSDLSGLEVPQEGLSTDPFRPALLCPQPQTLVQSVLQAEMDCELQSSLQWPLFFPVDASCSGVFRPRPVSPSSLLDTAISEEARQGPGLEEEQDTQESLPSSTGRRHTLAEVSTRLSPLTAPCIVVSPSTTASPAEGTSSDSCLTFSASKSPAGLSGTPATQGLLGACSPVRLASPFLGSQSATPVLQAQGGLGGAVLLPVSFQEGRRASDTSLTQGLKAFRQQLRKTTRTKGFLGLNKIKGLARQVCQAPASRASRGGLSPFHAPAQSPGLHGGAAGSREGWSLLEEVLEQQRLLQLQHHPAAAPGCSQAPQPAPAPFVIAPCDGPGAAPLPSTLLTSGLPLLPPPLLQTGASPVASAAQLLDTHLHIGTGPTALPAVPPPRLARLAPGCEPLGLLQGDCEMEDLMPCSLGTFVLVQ

CN(C)C(=O)c1cc2cnc(Nc3ccc(-c4csc5c(=O)cc(N6CCOCC6)oc45)cc3)nc2n1C1CCCC1 [SRX3177]
remaining binding at 1 µM (kinome (kinase panel) [1]): 55%
remaining binding at 1 µM (kinome (kinase panel) [2]): 68%
remaining binding at 1 µM (kinome (kinase panel) [3]): 100%
remaining binding at 1 µM (kinome (kinase panel) [4]): 38%
remaining binding at 1 µM (kinome (kinase panel) [5]): 58%
remaining binding at 1 µM (kinome (kinase panel) [6]): 8.9%
remaining binding at 1 µM (kinome (kinase panel) [7]): 78%
remaining binding at 1 µM (kinome (kinase panel) [8]): 51%
remaining binding at 1 µM (kinome (kinase panel) [9]): 40%
remaining binding at 1 µM (kinome (kinase panel) [10]): 100%
remaining binding at 1 µM (kinome (kinase panel) [11]): 46%
remaining binding at 1 µM (kinome (kinase panel) [12]): 79%
remaining binding at 1 µM (kinome (kinase panel) [13]): 2.4%
remaining binding at 1 µM (kinome (kinase panel) [14]): 72%
remaining binding at 1 µM (kinome (kinase panel) [15]): 75%
remaining binding at 1 µM (kinome (kinase panel) [16]): 1.1%
remaining binding at 1 µM (kinome (kinase panel) [17]): 77%
remaining binding at 1 µM (kinome (kinase panel) [18]): 82%
remaining binding at 1 µM (kinome (kinase panel) [19]): 78%
remaining binding at 1 µM (kinome (kinase panel) [20]): 63%
remaining binding at 1 µM (kinome (kinase panel) [21]): 97%
remaining binding at 1 µM (kinome (kinase panel) [22]): 56%
remaining binding at 1 µM (kinome (kinase panel) [23]): 100%
remaining binding at 1 µM (kinome (kinase panel) [24]): 97%
remaining binding at 1 µM (kinome (kinase panel) [25]): 100%
remaining binding at 1 µM (kinome (kinase panel) [26]): 100%
remaining binding at 1 µM (kinome (kinase panel) [27]): 49%
remaining binding at 1 µM (kinome (kinase panel) [28]): 80%
remaining binding at 1 µM (kinome (kinase panel) [29]): 56%
remaining binding at 1 µM (kinome (kinase panel) [30]): 98%
remaining binding at 1 µM (kinome (kinase panel) [31]): 70%
remaining binding at 1 µM (kinome (kinase panel) [32]): 4.1%
remaining binding at 1 µM (kinome (kinase panel) [33]): 94%

Source: paper PMC7385619, “A triple action CDK4/6-PI3K-BET inhibitor with augmented cancer cell cytotoxicity” (Cell Discovery, 2020)
